Measured values as given in PubChem BioAssay AID1259407 (Chemical Carcinogenesis Research Information System (CCRIS), 2018).
Calls of active or inactive are those of the source. The rule behind the calls is not given here.

Test system: CCRIS mutagenicity, Ames/micronucleus/aberration tests
Assay: CCRIS mutagenicity studies
Conditions: Test System: AMES SALMONELLA TYPHIMURIUM

Measured: mutagenic call

CCN(N=O)c1ccccc1
inactive: Strain/Indicator: TA98, Metabolic Activation: HAMSTER, LIVER, S-9, AROCLOR 1254, Method: PREINCUBATION inactive; negative | Strain/Indicator: TA98, Metabolic Activation: HAMSTER, LIVER, S-9, AROCLOR 1254, Method: STANDARD PLATE inactive; negative | Strain/Indicator: TA98, Metabolic Activation: HAMSTER, LIVER, S-9, Method: PREINCUBATION inactive; negative | Strain/Indicator: TA98, Metabolic Activation: HAMSTER, LIVER, S-9, Method: STANDARD PLATE inactive; negative | Strain/Indicator: TA98, Metabolic Activation: MOUSE, LIVER, S-9, AROCLOR 1254, Method: PREINCUBATION inactive; negative | Strain/Indicator: TA98, Metabolic Activation: MOUSE, LIVER, S-9, AROCLOR 1254, Method: STANDARD PLATE inactive; negative | Strain/Indicator: TA98, Metabolic Activation: MOUSE, LIVER, S-9, Method: PREINCUBATION inactive; negative | Strain/Indicator: TA98, Metabolic Activation: MOUSE, LIVER, S-9, Method: STANDARD PLATE inactive; negative | Strain/Indicator: TA98, Metabolic Activation: NONE, Method: PREINCUBATION inactive; negative | Strain/Indicator: TA98, Metabolic Activation: NONE, Method: STANDARD PLATE inactive; negative | Strain/Indicator: TA98, Metabolic Activation: RAT, LIVER, S-9, AROCLOR 1254, Method: PREINCUBATION inactive; negative | Strain/Indicator: TA98, Metabolic Activation: RAT, LIVER, S-9, AROCLOR 1254, Method: STANDARD PLATE inactive; negative | Strain/Indicator: TA98, Metabolic Activation: RAT, LIVER, S-9, Method: PREINCUBATION inactive; negative | Strain/Indicator: TA98, Metabolic Activation: RAT, LIVER, S-9, Method: STANDARD PLATE inactive; negative | Strain/Indicator: TA100, Metabolic Activation: HAMSTER, LIVER, S-9, AROCLOR 1254, Method: PREINCUBATION inactive; negative | Strain/Indicator: TA100, Metabolic Activation: HAMSTER, LIVER, S-9, AROCLOR 1254, Method: STANDARD PLATE inactive; negative | Strain/Indicator: TA100, Metabolic Activation: HAMSTER, LIVER, S-9, Method: PREINCUBATION inactive; negative | Strain/Indicator: TA100, Metabolic Activation: HAMSTER, LIVER, S-9, Method: STANDARD PLATE inactive; negative | Strain/Indicator: TA100, Metabolic Activation: MOUSE, LIVER, S-9, AROCLOR 1254, Method: PREINCUBATION inactive; negative | Strain/Indicator: TA100, Metabolic Activation: MOUSE, LIVER, S-9, AROCLOR 1254, Method: STANDARD PLATE inactive; negative | Strain/Indicator: TA100, Metabolic Activation: MOUSE, LIVER, S-9, Method: PREINCUBATION inactive; negative | Strain/Indicator: TA100, Metabolic Activation: MOUSE, LIVER, S-9, Method: STANDARD PLATE inactive; negative | Strain/Indicator: TA100, Metabolic Activation: NONE, Method: PREINCUBATION inactive; negative | Strain/Indicator: TA100, Metabolic Activation: NONE, Method: STANDARD PLATE inactive; negative | Strain/Indicator: TA100, Metabolic Activation: RAT, LIVER, S-9, AROCLOR 1254, Method: PREINCUBATION inactive; negative | Strain/Indicator: TA100, Metabolic Activation: RAT, LIVER, S-9, AROCLOR 1254, Method: STANDARD PLATE inactive; negative | Strain/Indicator: TA100, Metabolic Activation: RAT, LIVER, S-9, Method: PREINCUBATION inactive; negative | Strain/Indicator: TA100, Metabolic Activation: RAT, LIVER, S-9, Method: STANDARD PLATE inactive; negative | Strain/Indicator: TA1535, Metabolic Activation: HAMSTER, LIVER, S-9, AROCLOR 1254, Method: PREINCUBATION inactive; negative | Strain/Indicator: TA1535, Metabolic Activation: HAMSTER, LIVER, S-9, AROCLOR 1254, Method: STANDARD PLATE inactive; negative | Strain/Indicator: TA1535, Metabolic Activation: HAMSTER, LIVER, S-9, Method: PREINCUBATION inactive; negative | Strain/Indicator: TA1535, Metabolic Activation: HAMSTER, LIVER, S-9, Method: STANDARD PLATE inactive; negative | Strain/Indicator: TA1535, Metabolic Activation: MOUSE, LIVER, S-9, AROCLOR 1254, Method: PREINCUBATION inactive; negative | Strain/Indicator: TA1535, Metabolic Activation: MOUSE, LIVER, S-9, AROCLOR 1254, Method: STANDARD PLATE inactive; negative | Strain/Indicator: TA1535, Metabolic Activation: MOUSE, LIVER, S-9, Method: PREINCUBATION inactive; negative | Strain/Indicator: TA1535, Metabolic Activation: MOUSE, LIVER, S-9, Method: STANDARD PLATE inactive; negative | Strain/Indicator: TA1535, Metabolic Activation: NONE, Method: PREINCUBATION inactive; negative | Strain/Indicator: TA1535, Metabolic Activation: NONE, Method: STANDARD PLATE inactive; negative | Strain/Indicator: TA1535, Metabolic Activation: RAT, LIVER, S-9, AROCLOR 1254, Method: PREINCUBATION inactive; negative | Strain/Indicator: TA1535, Metabolic Activation: RAT, LIVER, S-9, AROCLOR 1254, Method: STANDARD PLATE inactive; negative | Strain/Indicator: TA1535, Metabolic Activation: RAT, LIVER, S-9, Method: PREINCUBATION inactive; negative | Strain/Indicator: TA1535, Metabolic Activation: RAT, LIVER, S-9, Method: STANDARD PLATE inactive; negative
